US11274083B2, “Substituted thiophenyl uracils, salts thereof and the use thereof as herbicidal agents” (Syngenta Crop Protection AG, priority 2017, dated 2022)
Values joined by “and” are separate entries in the source; they are usually repeats but may differ in a detail not shown here. Identical values can stand only once.

Tests used:
Type in all cases: in vivo
[1] = test system: Abutilon theophrasti; test: Herbicidal action post-emergence, greenhouse pot test; details: application rate 80 g/ha
Outline: (§1)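 Visual efficacy scoring (0% like untreated, 100% plant death) about 3 weeks post-treatment. Application, at ≤80 g/ha, was a post-emergence spray of wettable-powder or emulsion-concentrate formulations in water with 0.5% additive at 600 L/ha onto one-leaf-stage plants grown 2–3 weeks from seed in sandy loam.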

[2] = test system: Amaranthus retroflexus; test: as above; details: application rate 80 g/ha
Outline: as §1

[3] = test system: Echinochloa crus-galli; test: as above; details: application rate 80 g/ha
Outline: as §1

[4] = test system: Matricaria inodora; test: as above
Outline: as §1

[5] = test system: Pharbitis purpurea; test: as above; details: application rate 80 g/ha
Outline: as §1

[6] = test system: Polygonum convolvulus; test: as above
Outline: as §1

[7] = test system: Setaria viridis; test: as above; details: application rate 80 g/ha
Outline: as §1

[8] = test system: Stellaria media; test: as above; details: application rate 80 g/ha
Outline: as §1

[9] = test system: Veronica persica; test: as above; details: application rate 80 g/ha
Outline: as §1

[10] = test system: Viola tricolor; test: as above; details: application rate 80 g/ha
Outline: as §1

[11] = test system: Glycine max; test: Crop compatibility post-emergence, greenhouse pot test
Outline: (§2)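 Sandy loam pots, greenhouse; one-leaf stage, 2–3 wk post-sowing; WP or EC, aq. spray on green parts, 0.5% additive, 600 L/ha; ~3 wk; visual score % vs untreated (0 = control-like, 100 = dead).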

[12] = test system: Oryza sativa; test: as above
Outline: as §2

[13] = test system: Triticum aestivum; test: as above
Outline: as §2

[14] = test system: Zea mays; test: as above
Outline: as §2

[15] = test system: Abutilon theophrasti; test: Herbicidal action pre-emergence, greenhouse pot test; details: application rate 320 g/ha
Outline: (§3)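 Pre-emergence soil-surface treatment at application rates of 320 g/ha or below, using WP or EC formulations in water (600 L/ha) plus 0.5% additive over freshly sown, soil-covered seeds. After roughly 3 weeks' greenhouse growth, damage rated visually against untreated plants, 0% meaning like control.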

[16] = test system: Alopecurus myosuroides; test: as above; details: application rate 320 g/ha
Outline: as §3

[17] = test system: Amaranthus retroflexus; test: as above; details: application rate 80 g/ha
Outline: as §3

[18] = test system: Echinochloa crus-galli; test: as above; details: application rate 320 g/ha
Outline: as §3

[19] = test system: Lolium rigidum; test: as above; details: application rate 320 g/ha
Outline: as §3

[20] = test system: Pharbitis purpurea; test: as above; details: application rate 320 g/ha
Outline: as §3

[21] = test system: Polygonum convolvulus; test: as above; details: application rate 320 g/ha
Outline: as §3

[22] = test system: Setaria viridis; test: as above; details: application rate 320 g/ha
Outline: as §3

[23] = test system: Stellaria media; test: as above; details: application rate 320 g/ha
Outline: as §3

[24] = test system: Veronica persica; test: as above; details: application rate 320 g/ha
Outline: as §3

[25] = test system: Matricaria inodora; test: as above; details: application rate 320 g/ha
[26] = test system: Alopecurus myosuroides; test: Herbicidal action post-emergence, greenhouse pot test; details: application rate 80 g/ha, scored visually after about 3 weeks vs untreated controls
Outline: as §1

[27] = test system: Avena fatua; test: as above; details: application rate 80 g/ha
Outline: as §1

[28] = test system: Lolium rigidum; test: as above; details: application rate 80 g/ha
Outline: as §1

[29] = test system: Avena fatua; test: Herbicidal action pre-emergence, greenhouse pot test; details: application rate 320 g/ha
Outline: as §3

[30] = test system: Hordeum murinum; test: as above; details: application rate 320 g/ha
Outline: as §3

[31] = test system: Viola tricolor; test: as above; details: application rate 320 g/ha
Outline: as §3

[32] = test system: Hordeum murinum; test: Herbicidal action post-emergence, greenhouse pot test; details: application rate 80 g/ha
Outline: as §1

[33] = test system: Cyperus esculentus; test: Herbicidal action pre-emergence, greenhouse pot test; details: application rate 320 g/ha
Outline: as §3

Row | Compound | Abutilon theophrasti (Efficacy in %) [1] | Amaranthus retroflexus (Efficacy in %) [2] | Echinochloa crus-galli (Efficacy in %) [3] | Pharbitis purpurea (Efficacy in %) [5] | Setaria viridis (Efficacy in %) [7] | Stellaria media (Efficacy in %) [8] | Veronica persica (Efficacy in %) [9] | Viola tricolor (Efficacy in %) [10] | Oryza sativa (Efficacy in %) ([12]; application rate 80 g/ha) | Abutilon theophrasti (Efficacy in %) [15] | Alopecurus myosuroides (Efficacy in %) [16] | Amaranthus retroflexus (Efficacy in %) [17] | Echinochloa crus-galli (Efficacy in %) [18] | Lolium rigidum (Efficacy in %) [19] | Pharbitis purpurea (Efficacy in %) [20] | Polygonum convolvulus (Efficacy in %) [21] | Setaria viridis (Efficacy in %) [22] | Stellaria media (Efficacy in %) [23] | Veronica persica (Efficacy in %) [24] | Matricaria inodora (Efficacy in %) [25] | also measured
1 | COC(=O)CCOC(=O)C(C)(C)Sc1cc(-n2c(=O)cc(C(F)(F)F)n(C)c2=O)c(F)cc1Cl [I.46-2] | 100% | 100% | 100% | 100% | 100% | 80% | 80% | 80% | 20% | 100% | 90% | 100% | 100% | 100% | 100% | 100% | 100% | 100% | 100% | 100% | Matricaria inodora (Efficacy in %) ([4]; application rate 20 g/ha): 100%; Polygonum convolvulus (Efficacy in %) ([6]; application rate 20 g/ha): 100%; Glycine max (Efficacy in %) ([11]; application rate 5 g/ha): 20%; Triticum aestivum (Efficacy in %) ([13]; application rate 20 g/ha): 20%; Zea mays (Efficacy in %) ([14]; application rate 20 g/ha): 20%
2 | CC(Sc1cc(-n2c(=O)cc(C(F)(F)F)n(C)c2=O)c(F)cc1Cl)C(=O)OCC1CCC(=O)N1 (centres unmarked) [I.1-255] | 100% | 100% | 100% | 100% | 100% | 100% | 100% | 100% | 0% | 100% | 90% | 100% | 100% | 100% | 100% | 100% | 100% | 100% | 100% | 100% | Alopecurus myosuroides (Efficacy in %) [26]: 90%; Avena fatua (Efficacy in %) [27]: 80%; Lolium rigidum (Efficacy in %) [28]: 100%; Matricaria inodora (Efficacy in %) ([4]; application rate 80 g/ha): 100%; Polygonum convolvulus (Efficacy in %) ([6]; application rate 80 g/ha): 100%; Glycine max (Efficacy in %) ([11]; application rate 20 g/ha): 20%; Triticum aestivum (Efficacy in %) ([13]; application rate 20 g/ha): 10%; Zea mays (Efficacy in %) ([14]; application rate 80 g/ha): 10%; Avena fatua (Efficacy in %) [29]: 90%; Hordeum murinum (Efficacy in %) [30]: 100%; Viola tricolor (Efficacy in %) [31]: 100%
3 | CC(Sc1cc(-n2c(=O)cc(C(F)(F)F)n(C)c2=O)c(F)cc1Cl)C(=O)OC1CNC(=O)C1 (centres unmarked) [I.1-254] | 100% | 100% | 100% | 100% | 100% | 90% | 90% | 100% | 0% | 100% | 100% | 100% | 100% | 100% | 100% | 100% | 100% | 100% | 100% | 100% | Avena fatua (Efficacy in %) [27]: 80%; Hordeum murinum (Efficacy in %) [32]: 100% and 80%; Matricaria inodora (Efficacy in %) ([4]; application rate 80 g/ha): 100%; Polygonum convolvulus (Efficacy in %) ([6]; application rate 80 g/ha): 100%; Glycine max (Efficacy in %) ([11]; application rate 20 g/ha): 20%; Triticum aestivum (Efficacy in %) ([13]; application rate 20 g/ha): 10%; Zea mays (Efficacy in %) ([14]; application rate 80 g/ha): 0%; Avena fatua (Efficacy in %) [29]: 90%; Cyperus esculentus (Efficacy in %) [33]: 80%; Hordeum murinum (Efficacy in %) [30]: 90%; Viola tricolor (Efficacy in %) [31]: 100%
4 | CC(Sc1cc(-n2c(=O)cc(C(F)(F)F)n(C)c2=O)c(F)cc1Cl)C(=O)OCC(=O)N(C)C (centres unmarked) [I.1-241] | 100% | 100% | 100% | 100% | 100% | 100% | 100% | 100% |  | 100% | 100% | 100% | 100% | 100% | 100% | 100% | 100% | 100% | 100% | 100% | Lolium rigidum (Efficacy in %) [28]: 90%; Matricaria inodora (Efficacy in %) ([4]; application rate 80 g/ha): 100%; Polygonum convolvulus (Efficacy in %) ([6]; application rate 80 g/ha): 100%; Glycine max (Efficacy in %) ([11]; application rate 5 g/ha): 10%; Oryza sativa (Efficacy in %) ([12]; application rate 5 g/ha): 10%; Triticum aestivum (Efficacy in %) ([13]; application rate 5 g/ha): 10%; Avena fatua (Efficacy in %) [29]: 100%; Cyperus esculentus (Efficacy in %) [33]: 100%; Hordeum murinum (Efficacy in %) [30]: 100%; Viola tricolor (Efficacy in %) [31]: 100%
